Source: patent EP0970121B1, “PEPTIDE FRAGMENTS OF MYELIN BASIC PROTEIN, THEIR PHARMACEUTICAL COMPOSITIONS AND THEIR USE IN TREATING MULTIPLE SCLEROSIS” (The Governors of the University of Alberta, priority 1997, dated 1998)
Entries after “also recorded” stand apart in the source; their conditions may differ. Where no end group is shown, it is not given here.

Columns and labels:
[1] = system: anti-MBP purified from CSF of MS patients; test: In vitro neutralization of purified anti-MBP (liquid phase assay, then solid phase radioimmunoassay); assay type: binding, human; design: key to REACTIVITY WITH ANTI-MBP: + +: complete neutralization; +: partial neutralization; -: insignificant reactivity; conditions: for REACTIVITY WITH ANTI-MBP: purified anti-MBP, peptides 0-10.000 ng, h-MBP 0-1000 ng, 1.5 hours incubation; for neutralization of purified anti-MBP: pooled anti-MBP from 10 different MS patients, peptides up to 10.000 ng, MBP and negative antigen controls up to 1000 ng
Method: (§1) Constant amounts of anti-MBP (15 radioactivity binding units corresponding to 100 for scale expansion purposes = %0) were incubated with increasing amounts of h-MBP (0-1000 ng) or individual peptides of MBP (0-10.000 ng) in a liquid phase assay and after 1.5 hours incubation, free anti-MBP levels were determined in all mixtures. Anti-MBP isolated from 7 individual MS patients or pooled anti-MBP from 10 different MS patients were used in neutralization experiments. Calf thymus histone and human serum albumin were used as negative antigen controls (range: 10-1000 ng). One monoclonal antibody (MAb) to peptide MBP64-78 and a polyclonal rabbit antiserum to peptide MBP1-8 were used as positive antibody controls (Groome, N., Harland, J., and Dawkes, A., Neurochem Int 7:309-317, 1985, Barry, R., Payton. M., and Groome, N., Neurochem Int 2:291-300. 1991). Another mouse monoclonal antibody to epitope 45-50 was used as negative antibody control.
Anti-MBP levels were determined by a solid phase radioimmunoassay with human MBP (Warren, K.G. and Catz, I., Ann Neurol 209:20-25, 1986; Warren, K.G. and Catz, I., Ann Neurol 21:183-187, 1987; and Warren, K.G. and Catz, I., J Neurol Sci 91:143-151. 1989). Free anti-MBP levels were measured in all fractions from affinity chromatography and in all neutralization mixtures. All individual samples were run in quadruplicate using the same iodinated material in order to minimize between-assay variability.

MS patients = test: Monitoring for adverse effects after peptide administration; assay type: in vivo, human
Method: After determining that peptide MBP75-95 neutralized F anti-MBP in vivo for periods in excess of 7 days, it was elected to repeatedly inoculate 10 mg MBP75-95 into the spinal fluid at weekly intervals for 10 weeks. This experiment was conducted, in 3 different patients with chronic progressive MS who have not participated in the single peptide injection project and volunteered for this study. F and B anti-MBP were determined 1-2 weeks prior to the first inoculation, prior to and 30 minutes following each of the 10 injections and again 1 month after the last injection. Cell counts, total protein, glucose, IgG and albumin levels were determined in all CSFs obtained before each of the 10 injections. Prior to the first and after the last injection blood was obtained and analyzed for electrolytes, creatinine, cardiac and liver enzymes and hematology panel.
Blood was obtained before injection as well as 16 and 30 days later and analyzed for electrolytes, creatinine, cardiac and liver enzymes and hematology panel. Spinal fluid was monitored for cell counts, total protein, glucose, IgG and albumin levels.

[2] = system: polyclonal rabbit antiserum to peptide MBP1-8; test: Positive antibody control of the neutralization assay; assay type: binding
Method: as §1

CSF anti-MBP = test: Intrathecal peptide administration, CSF anti-MBP by radioimmunoassay; assay type: in vivo, human
Method: Anti-MBP levels were determined by a solid phase radioimmunoassay with human MBP coated on Immulon microtiter wells. Immulon microtiter wells were coated with 100 µl of 10 µg/ml of MBP (1 µg/well) and incubated overnight at 37°C. After quenching with bovine serum albumin (BSA) and three water washes, the wells were stored at room temperature. Samples of 100 µl of CSF or tissue extracts diluted to 0.010 gm of IgG/l (with 0.01 M Barbitol Buffered Saline (BBS) pH 6.9-7.1. 0.5% BSA and 0.05% Tween 20) were incubated in MBP-coated wells for 1-2 hours at room temperature. After 5 buffer washes (with 0.01 M BBS, 0.5 BSA and 0.05% Tween 20), wells were incubated with goat anti-rabbit IgG-Fc specific (in 0.01 M BBS, 0.05% Tween 20, 0.5% BSA) for 1 hour at room temperature and then rinsed as above. Finally, ^125I-protein A (or ^125 I-protein G) was added and incubated for 1 hour at room temperature. When ^125I-protein G was used as a tracer, ovalbumin replaced BSA in assay buffer and for quenching. After three final water washes wells were individually counted. Results are expressed in radioactivity defined as: (counts of sample - counts of blank) ÷ (counts of total radioactivity - counts of blank). All samples are run in 10 replicate and counting time is 10 minutes in order to collect > 10,000 counts for any positive sample.
Prior to being assayed all CSF and/or tissue samples were diluted to a final IgG concentration of 0.010 g/l. F anti-MBP was detected directly in CSF or tissue extract while B levels of antibody were determined following acid hydrolysis of immune complexes with glycine HCl buffer pH 2.2. Non-specific binding was performed for each sample in uncoated wells. For epitope localization, synthetic peptides were firstly reacted with purified antibody in a liquid phase competitive assay and then anti-MBP was determined by radioimmunoassay in all resulting supernatants. Results of the combined competitive binding assay and radioimmunoassay were expressed as percent inhibition of synthetic peptide defined as 100 - radioactivity units. Samples were done in 10 replicates and counted for 10 minutes each in a LKB1275 Minigamma counter. […]
A Phase 1 experiment to determine the effect of synthetic peptide MBP75-95 on F and B titers of CSF anti-MBP was conducted. […] 14 patients volunteered for this study: eight patients were selected on the basis of their initial titre of F CSF anti-MBP (above 8 radioactivity units) (Table 2) to receive one intrathecal injection of either peptide MBP75-95 which bound anti-MBP in vitro or a non-binding control peptide MBP35-58 (Warren and Catz, 1993b). […] Cell counts, total protein, glucose, IgG and albumin levels were determined in all CSF samples obtained. F and B anti-MBP levels were determined by radioimmunoassay, as described above. […]

[3] = system: F and B anti-MBP purified by affinity chromatography from CSF and MS brain tissue; test: Competitive inhibition assay with decapeptides (MBP epitope localization); assay type: binding, human; conditions: purified F and B anti-MBP from MS brain tissue (Fig. 10); percent inhibition = 100 - radioactivity units
Method: Prior to being assayed all CSF and/or tissue samples were diluted to a final IgG concentration of 0.010 g/l. F anti-MBP was detected directly in CSF or tissue extract while B levels of antibody were determined following acid hydrolysis of immune complexes with glycine HCl buffer pH 2.2. Non-specific binding was performed for each sample in uncoated wells. For epitope localization, synthetic peptides were firstly reacted with purified antibody in a liquid phase competitive assay and then anti-MBP was determined by radioimmunoassay in all resulting supernatants. Results of the combined competitive binding assay and radioimmunoassay were expressed as percent inhibition of synthetic peptide defined as 100 - radioactivity units. Samples were done in 10 replicates and counted for 10 minutes each in a LKB1275 Minigamma counter. A pool of tissue-purified anti-MBP was used at 5 pre-established dilutions as positive controls. Pooled CSF from patients with non-neurological diseases was used as negative controls. Within assay reproducibility was between 3 and 5% and between assay variation was less than 7 %.
The peptide(s) producing maximum inhibition were considered to be most highly associated with the antibody binding site.

[4] = Solubility in normal saline

18-32: synthetic peptide of human MBP sequence 18-32 (NSETNRGESEKKRNL; UniProt P02686 18-32, looked up, fragment)
REACTIVITY WITH ANTI-MBP [1]: -

26 - 40: synthetic peptide of human MBP sequence 26-40 (SEKKRNLGELSRTTS; UniProt P02686 26-40, looked up, fragment)
REACTIVITY WITH ANTI-MBP [1]: -

117 - 129: synthetic peptide of human MBP sequence 117-129 (LQTIQEDSAATSE; UniProt P02686 117-129, looked up, fragment)
REACTIVITY WITH ANTI-MBP [1]: -

141 - 155: synthetic peptide of human MBP sequence 141-155 (SQRHGSKYLATASTM; UniProt P02686 141-155, looked up, fragment)
REACTIVITY WITH ANTI-MBP [1]: -

Cy 4 - 18: synthetic peptide of human MBP sequence 4-18 with cysteine (HAGKRELNAEKASTN; also: added cysteine, end not given here; UniProt P02686 4-18, looked up, fragment)
REACTIVITY WITH ANTI-MBP [1]: -

Cy 11 - 24: synthetic peptide of human MBP sequence 11-24 with cysteine (NAEKASTNSETNRG; also: added cysteine, end not given here; UniProt P02686 11-24, looked up, fragment)
REACTIVITY WITH ANTI-MBP [1]: -

Cy 51 - 64 Gly: synthetic peptide of human MBP sequence 51-64 with cysteine and Gly (ANQNNGTSSQDTAV; also: added cysteine and glycine, ends not given here; UniProt P02686 51-64, looked up, fragment)
REACTIVITY WITH ANTI-MBP [1]: +

Cy 127 - 140: synthetic peptide of human MBP sequence 127-140 with cysteine (TSESLDVMASQKRP; also: added cysteine, end not given here; UniProt P02686 127-140, looked up, fragment)
REACTIVITY WITH ANTI-MBP [1]: -

Cy 136 - 149: synthetic peptide of human MBP sequence 136-149 with cysteine (SQKRPSQRHGSKYL; also: added cysteine, end not given here; UniProt P02686 136-149, looked up, fragment)
REACTIVITY WITH ANTI-MBP [1]: -

HHPARTAHYGSLPQK [MBP61-75]
neutralization of purified anti-MBP [1]: partially neutralized
REACTIVITY WITH ANTI-MBP [1]: +

KSHGRTQDENPVVHFFKNIVT [MBP75-95]
adverse effects (MS patients; 500 mg intravenously over 30 minutes, patient 8M41): No adverse effects were observed
adverse effects / systemic complications (MS patients; repeated intrathecal inoculations, electrolytes, cardiac-liver-kidney function, hematology): no adverse complications have occurred

MBP1-8: synthetic peptide of human MBP sequence 1-8 with cysteine (MGNHAGKR; also: added cysteine, end not given here; UniProt P02686 1-8, looked up, fragment)
inhibition of MAb to peptide MBP 1-8 [2]: inhibited
REACTIVITY WITH ANTI-MBP [1]: -

MBP35-58: non-binding, control synthetic peptide of human MBP residues 35-58 (LSRTTSEDNEVFGEADANQNNGTS; also: added cysteine, end not given here; UniProt P02686 35-58, looked up, fragment)
F and B levels of CSF anti-MBP (CSF anti-MBP; one intrathecal injection of 1, 2.5, 5 and 10 mg, 24 hour experiment): remained unaffected; also recorded: remained unchanged
F anti-MBP in CSF (CSF anti-MBP; one intrathecal injection, 5 mg): remained elevated at baseline level
F anti-MBP in CSF (CSF anti-MBP; one intrathecal injection, 10 mg): persistently elevated
CSF F anti-MBP over increasing doses (CSF anti-MBP; one intrathecal injection, increasing amounts 1, 2.5, 5 and 10 mg): did not react
REACTIVITY WITH ANTI-MBP [1]: -

MBP51 -60: decapeptide of human MBP residues 51-60, negative control (ANQNNGTSSQ; UniProt P02686 51-60, looked up, fragment)
percent inhibition of both F and B anti-MBP [3]: 0-10%

MBP 111 -120: decapeptide of human MBP residues 111-120, negative control (PSESDELQTI; UniProt P02686 111-120, looked up, fragment)
percent inhibition of both F and B anti-MBP [3]: 0-10%

Thr Gln Asp Glu Asn Pro Val Val His Phe Phe Lys Asn Ile Val Thr Pro Arg (TQDENPVVHFFKNIVTPR; printed: Thr Gln Asp Glu Asn Pro Val Val His Phe Phe Lys Asn Ile Val Thr Pro Arg) [MBP80-97]
neutralization of anti-MBP purified from 7 individual MS patients ([1]; anti-MBP of individual patients): completely neutralized
neutralization of purified anti-MBP [1]: completely neutralized
REACTIVITY WITH ANTI-MBP [1]: + +
times less effective on a molar basis than intact MBP at causing inhibition ([1]; relative to intact MBP): approximately 100 times

VVHFFKNIVT [MBP86-95, Val Val His Phe Phe Lys Asn Ile Val Thr]
solubility [4]: very low solubility
